The values below come from patent publication US20250332173A1, “COMPOUNDS AND METHODS FOR MODULATING NUCLEIC ACID SPLICING” (REMIX THERAPEUTICS INC., priority 2021, published 2025).

For one test, the system named is HTT mRNA. Briefly: RT-qPCR splicing assay, HTT canonical junction (CJ) and alternative junction (AJ) mRNA. The format is cell-based, human. To be noted: Homo sapiens; for AC50: increase in HTT alternative junction (AJ) mRNA, read-out: HTT AJ AC50. Summed up: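 Following a 24-hour incubation of A673 or K562 cells with serially diluted compound (3-fold steps, highest final 10 uM), the lysates undergo cDNA synthesis plus qPCR. Canonical and alternative junctions are each quantified against PPIA, GAPDH or GUSB.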
(In general: In qPCR the cycle at which signal appears reflects the starting amount.)

For a further test, the system named is MYB. Briefly: HiBiT protein abundance assay, MYB HiBiT K562 cell line. It is filed as cell-based, human. The settings on record: HiBiT K562 cell line, 24 hours, top dose 10 μM; read-out: Effect on protein abundance, MYB (IC50 category). In a few lines: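 Endogenous targets in K562 knock-in lines carried a HiBiT tag and were treated for 24 h at 37 °C with 10-point 3-fold dilutions (top 10 μM final, DMSO ≤0.25%). Abundance was read as lytic Nano-Glo HiBiT luminescence. IC50 came from a four-parameter logistic fit of normalized response.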

Test [1] relates to K562 (human chronic myelogenous leukemia) cells. In words: Cell Titer Glo 2.0 cell viability assay. To be noted: Homo sapiens, K562, 72 h, K562 cells, 72 hours, Cell Titer Glo 2.0; read-out: K562 GI50. The format is cell-based. (In general: In ATP-based viability assays light output follows the ATP content of the culture.)
Setting [2] is: decrease in HTT canonical junction (CJ) mRNA, RT-qPCR, read-out: HTT CJ IC50.
[3] abbreviates: Table 5 panel, canonical junction qPCR, compound concentration having 50% response in CJ decrease, read-out: HTT IC50 (decrease in CJ mRNA levels).

By pIC50 is commonly meant the negative decadic logarithm of the IC50, by convention in mol/L. Broadly, the AC50 is the concentration at which the activity in the assay is half-maximal. One may read the GI50 as the concentration at which growth is held to half of that of the control.

pIC50: −log10 of the molar value. Where two headings read alike, the source gives them in different places.

`Cc1cn2cc(-c3cc(F)c4c(=O)n([C@@H]5CCNC5)ccc4c3)cc(F)c2n1` (single isomer, unassigned) [Compound 395]: the pIC50 was 5.00 to 6.00 in the test with HTT mRNA (setting [2]), 5.00 to 6.00 in the test on HTT mRNA (setting [3]) and 6.00 to 7.00 with MYB. In the test with HTT mRNA (RT-qPCR), the AC50 was in the range of 1000 to 10000 nM. Further, in test [1], the GI50 lay in the range of 100 to 1000 nM.
Turning to `Cc1cn2cc(-c3cc(F)c4c(=O)n([C@H]5CCNC5)ccc4c3)cc(F)c2n1` (single isomer, unassigned) [Compound 396], the pIC50 with HTT mRNA (setting [2]) is 5.00 to 6.00; in the test with HTT mRNA (setting [3]) it was 5.00 to 6.00; in the test with MYB it was 6.00 to 7.00. In addition, the AC50 in the test on HTT mRNA (RT-qPCR) lay in the range of 1000 to 10000 nM. For the same compound, the GI50 in test [1] fell in the range of 100 to 1000 nM.
Take `Cc1cn2cc(-c3ccc4c(=O)n([C@@H]5CCCNC5)ccc4c3)cc(F)c2n1` (single isomer, unassigned) [Compound 403]: the pIC50 in the test on HTT mRNA (setting [2]) was 5.00 to 6.00; with HTT mRNA (setting [3]), 5.00 to 6.00; with MYB it was 6.00 to 7.00. Also, the AC50 with HTT mRNA (RT-qPCR) lay in the range of 1000 to 10000 nM. In addition, in test [1], the GI50 lay within 1000 to 10000 nM.
Take `Cc1cn2nc(-c3cc(F)c4c(=O)n([C@@H]5CCNC6(CC6)C5)ccc4c3)cc(C)c2n1` (single isomer, unassigned) [Compound 425]: the pIC50 in the test with HTT mRNA (setting [2]), with HTT mRNA (setting [3]) and with MYB was greater than 7.00 each time. The AC50 in the test with HTT mRNA (RT-qPCR) is less than 100 nM. Moreover, the GI50 in test [1] is less than 100 nM.
On to `Cc1cn2nc(-c3cc(F)c4c(=O)n([C@H]5CCNC6(CC6)C5)ccc4c3)cc(C)c2n1` (single isomer, unassigned) [Compound 426], for which the pIC50 with HTT mRNA (setting [2]), in the test with HTT mRNA (setting [3]) and in the test on MYB was greater than 7.00 each time. The AC50 in the test on HTT mRNA (RT-qPCR) is less than 100 nM. Moreover, the GI50 in test [1] was less than 100 nM.
As for `Cc1cn2nc(-c3ccc4c(=O)n([C@@H]5CCNC6(CC6)C5)ncc4c3)cc(C)c2n1` (stereo in doubt) [Compound 368, 2-[(7R)-4-azaspiro[2.5]octan-7-yl]-6-{2,8-dimethylimidazo[1,2-b]pyridazin-6-yl}phthalazin-1-one], the pIC50 with HTT mRNA (setting [2]), with HTT mRNA (setting [3]) and in the test on MYB was greater than 7.00 throughout. Also, the concentration at half-maximal activity (AC50) with HTT mRNA (RT-qPCR) is less than 100 nM. The GI50 in test [1] was 100 to 1000 nM.
Take `Cc1cn2nc(-c3cc(F)c4c(=O)n(C5CCNC5)ccc4c3)cc(C)c2n1` (stereo in doubt) [Compound 382, (R)-6-(2,8-dimethylimidazo[1,2-b]pyridazin-6-yl)-8-fluoro-2-(pyrrolidin-3-yl)isoquinolin-1(2H)-one]: the pIC50 in the test on HTT mRNA (setting [2]) is 5.00 to 6.00; with HTT mRNA (setting [3]), 5.00 to 6.00; in the test with MYB, 6.00 to 7.00. The AC50 in the test on HTT mRNA (RT-qPCR) was 1000 to 10000 nM. For the same compound, in test [1], the GI50 lay within 1000 to 10000 nM.
`Cc1cn2nc(-c3cc(F)c4c(=O)n(C5CCNC5)ccc4c3)cc(C)c2n1` (stereo in doubt) [Compound 392, (S)-6-(2,8-dimethylimidazo[1,2-b]pyridazin-6-yl)-8-fluoro-2-(pyrrolidin-3-yl)isoquinolin-1(2H)-one]: the pIC50 in the test on HTT mRNA (setting [2]) is 5.00 to 6.00; in the test on HTT mRNA (setting [3]), 5.00 to 6.00; in the test with MYB, 6.00 to 7.00. Also, in the test with HTT mRNA (RT-qPCR), the AC50 lay within 1000 to 10000 nM. Further, the GI50 in test [1] is 1000 to 10000 nM.
As to `Cc1cn2nc(-c3cc(C)c4c(=O)n(C5CCNC6(CC6)C5)ccc4c3)cc(C)c2n1` (stereo in doubt) [Compound 397, (S)-6-(2,8-dimethylimidazo[1,2-b]pyridazin-6-yl)-8-methyl-2-(4-azaspiro[2.5]octan-7-yl)isoquinolin-1(2H)-one], the pIC50 with HTT mRNA (setting [2]), in the test with HTT mRNA (setting [3]) and in the test on MYB was greater than 7.00 throughout. For the same compound, the AC50 with HTT mRNA (RT-qPCR) was less than 100 nM. Also, in test [1], the GI50 lay in the range of 100 to 1000 nM.
For the compound `Cn1cc2cc(-n3cnc4cc(NC5CCNCC5)ccc4c3=O)ccc2n1` [Compound 162], the pIC50 in the test on HTT mRNA (setting [2]), with HTT mRNA (setting [3]) and in the test on MYB was less than 5.00 throughout. The AC50 in the test with HTT mRNA (RT-qPCR) is greater than 10000 nM.
